Laboratory results as given in US8795634B2, “Absorption of therapeutic agents across mucosal membranes or the skin” (Critical Pharmaceuticals Limited, priority 2008, dated 2014).

Key:
[1] = Blood glucose after intranasal insulin with Solutol HS15 or its individual components (Example 8); type: in vivo, male Sprague Dawley rats; conditions: insulin 4 IU/kg intranasal; PEG 600 10% w/v, PEG-HSA 10% w/v, HSA 0.37%, HSA-PEG-HSA 2%
Experimental: The PEG-HSA and HSA-PEG-HSA were prepared by refluxing polyethylene glycol 600 (PEG 600) and 12-Hydroxystearic acid (HSA) under argon at 120° C. using methane sulfonic acid. All chemicals were purchased from Sigma Aldrich.
Four components were tested in vivo. The following components were dissolved into 0.063M phosphate buffer at the concentrations below: • PEG 600—10% w/v solution • PEG-HSA—10% w/v Solution • HSA—0.37% solution • HSA-PEG-HSA—2% solution
The lower concentrations of HSA and HSA-PEG-HSA were used due to restricted solubility of these materials.
The components dissolved in phosphate buffer were then used to prepare 1 mg/mL insulin solutions and administered intranasally to male Sprague Dawley rats at a rate of 4 IU/kg. All formulations were administered with a Gilson pipette and the tip was inserted approximately 5 mm into the nostril. The animals were housed in limited access rooms where the temperature and humidity were maintained at 21° C.±2° C. and 55%±15% relative respectively; the rooms were lit with artificial light for 12 hours each day. Blood samples were collected from the tail vein of the rats at 0 min (Pre-dose) and 5, 15, 30, 60 and 120 minutes after administration into heparinized tubes, centrifuged and the plasma collected. Blood glucose was measured immediately at each sampling point using a one touch Ultra 2 glucose meter (LifeScan, UK).

[2] = Blood glucose after intranasal insulin in Solutol HS15 solutions (Example 1); type: in vivo, Sprague Dawley rats; conditions: control insulin solutions, without Solutol HS15
Experimental: The formulations were then administered intranasally to Sprague Dawley rats at 4 IU/kg and blood samples taken at frequent intervals up to 2 hours after administration. Blood glucose was measured using a standard glucose meter and insulin determined in the plasma by an enzyme linked immunosorbant assay (ELISA).
A group of rats was also administered with insulin dissolved in PBS via subcutaneous injection as comparison to the intranasal doses.

| Compound | drop in blood glucose levels [1] | decrease in plasma glucose levels [2] |
| --- | --- | --- |
| CCCCCCC(O)CCCCCCCCCCC(=O)O (centres unmarked) [HSA, 12-Hydroxystearic acid] | did not |  |
| insulin: Insulin (available from Sigma-Aldrich) |  | 15% |
